Assay [1] concerns the target T1, Alpha-glucosidase (Apis mellifera) (UniProt Q17058).
T1 sequence (whole entry): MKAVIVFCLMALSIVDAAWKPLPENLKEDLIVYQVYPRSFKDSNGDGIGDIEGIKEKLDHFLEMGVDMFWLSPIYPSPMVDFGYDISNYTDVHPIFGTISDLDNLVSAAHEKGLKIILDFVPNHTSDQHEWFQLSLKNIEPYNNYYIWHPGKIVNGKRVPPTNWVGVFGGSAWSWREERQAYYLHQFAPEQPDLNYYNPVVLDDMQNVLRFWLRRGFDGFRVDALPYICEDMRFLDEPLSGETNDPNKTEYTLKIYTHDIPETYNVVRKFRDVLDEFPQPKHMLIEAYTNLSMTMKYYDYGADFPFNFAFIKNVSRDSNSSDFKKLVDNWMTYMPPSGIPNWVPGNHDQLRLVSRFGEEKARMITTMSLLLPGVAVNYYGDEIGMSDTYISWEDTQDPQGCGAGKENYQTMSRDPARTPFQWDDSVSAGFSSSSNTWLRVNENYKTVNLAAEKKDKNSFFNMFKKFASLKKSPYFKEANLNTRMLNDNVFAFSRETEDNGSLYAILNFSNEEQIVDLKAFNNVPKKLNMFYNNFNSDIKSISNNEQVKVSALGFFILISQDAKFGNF
The experiment in a line: Inhibition of family 13 alpha-glucosidase isoform II from honey bee. To be noted: concentration not given here.

Assay [2] addresses T2, Mannosyl-oligosaccharide glucosidase (Homo sapiens) (UniProt Q13724).
T2 sequence (whole entry): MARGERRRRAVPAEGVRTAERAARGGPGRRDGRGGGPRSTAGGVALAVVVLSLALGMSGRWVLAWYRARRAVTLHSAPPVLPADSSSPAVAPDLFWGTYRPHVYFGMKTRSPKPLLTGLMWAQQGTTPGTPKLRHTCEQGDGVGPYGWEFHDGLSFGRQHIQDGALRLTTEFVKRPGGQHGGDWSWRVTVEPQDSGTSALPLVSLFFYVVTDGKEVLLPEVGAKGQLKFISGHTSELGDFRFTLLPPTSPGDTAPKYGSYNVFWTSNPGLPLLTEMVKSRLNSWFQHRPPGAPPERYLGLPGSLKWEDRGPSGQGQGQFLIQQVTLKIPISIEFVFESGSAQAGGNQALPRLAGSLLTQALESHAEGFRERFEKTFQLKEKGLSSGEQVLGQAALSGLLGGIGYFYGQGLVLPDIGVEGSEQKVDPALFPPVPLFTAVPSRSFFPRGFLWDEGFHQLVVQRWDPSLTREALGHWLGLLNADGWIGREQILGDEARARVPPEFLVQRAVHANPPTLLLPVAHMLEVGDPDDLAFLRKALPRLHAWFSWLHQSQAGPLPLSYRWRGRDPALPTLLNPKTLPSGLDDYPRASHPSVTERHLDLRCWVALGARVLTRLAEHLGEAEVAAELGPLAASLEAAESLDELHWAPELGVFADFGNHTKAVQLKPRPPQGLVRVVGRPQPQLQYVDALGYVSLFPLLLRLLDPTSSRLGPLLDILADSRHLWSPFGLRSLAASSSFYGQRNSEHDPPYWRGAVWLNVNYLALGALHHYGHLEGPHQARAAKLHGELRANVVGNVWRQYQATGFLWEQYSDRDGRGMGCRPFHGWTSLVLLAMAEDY
The assay is described as follows: Inhibition of Glucosidase 1(of Endoplasmic reticulum processing alpha-glucosidase) at 2 umol/mL.

For assay [3], the target named is T1, Alpha-glucosidase (Apis mellifera). The assay is described as follows: Inhibition of family 13 alpha-glucosidase isoform I from honey bee. To be noted: concentration not given here.
Assay [4] is described as follows: Competitive Inhibition constant for Bacillus stearothermophilus glucosidase. Further details: species or system Geobacillus stearothermophilus.
The next assay addresses T3, Alpha-glucosidase (Apis mellifera, UniProt Q17058).
T3 sequence (Q17058 whole entry): T1 sequence (whole entry)
The assay is described as follows: Inhibition of family 13 alpha-glucosidase isoform I from honey bee at 1 umol/mL.

Usually inhibition stands for the drop in the measured response relative to a control, in per cent. By Ki is commonly meant the dissociation constant of the complex between target and ligand, obtained from inhibition or displacement. Read a high Ki as weaker binding. The term IC50 denotes the concentration that inhibits the measured activity by half. Lower therefore signals greater potency.

With `O=C(NCC1OC(CO)C(O)C(O)C1O)c1ccccc1` (stereo not given), the inhibition amounted to 12.3% in assay [1] and 18.2% in assay [2].
Molecule `O=C(CCCO)NCC1OC(CO)C(O)C(O)C1O` (stereo not given) came in with an inhibition in assay [3] of less than 1%.
As to `O=C(CCCCO)NCC1OC(CO)C(O)C(O)C1O` (stereo not given), affinity in assay [4] was put at a Ki of 580 µM.
At Alpha-glucosidase, `O=C(CO)NCC1OC(CO)C(O)C(O)C1O` (stereo not given) returned an IC50 of 851 µM.

(Values after ChEMBL document CHEMBL1142021, “Aglycon specificity profiling of alpha-glucosidases using synthetic probes” (Bioorg Med Chem Lett, 2005).)
